Results from publication PMC9518264, “Design and synthesis of novel quinazolinone-based derivatives as EGFR inhibitors with antitumor activity” (Journal of Enzyme Inhibition and Medicinal Chemistry, 2022).

Columns and labels:
[1] = test system: NCI-H226; experiment: cells; assay type: cell-based; details: Homo sapiens; NCI-H226; 10 μM; supplementary table 3a-g; read-out: growth inhibition % (GI %)
[2] = test system: SR; experiment: cells; assay type: cell-based; details: Homo sapiens, 10 μM, supplementary table 3a-g, read-out: growth inhibition % (GI %)
[3] = test system: RXF 393; experiment: cells; assay type: cell-based; details: Homo sapiens; RXF 393; 10 μM; supplementary table 3a-g; read-out: growth inhibition % (GI %)
[4] = test system: UO-31; experiment: cells; assay type: cell-based; details: Homo sapiens; UO-31; 10 μM; supplementary table 3a-g; read-out: growth inhibition % (GI %)
[5] = test system: HOP-92; experiment: cells; assay type: cell-based; details: Homo sapiens; HOP-92; 10 μM; supplementary table 3a-g; read-out: growth inhibition % (GI %)
[6] = test system: panel of 60 tumour cell lines; experiment: NCI 60 cell line antiproliferative screening (SRB), whole panel or subpanels (means, ranges, words); assay type: cell-based, human; details: Homo sapiens, 60 cell, mean over the cell line panel; 10 μM; supplementary table 3a-g; read-out: Mean inhibition
[7] = test system: K-562; experiment: cells; assay type: cell-based; details: Homo sapiens, K562; K-562; 10 μM; supplementary table 3a-g; read-out: growth inhibition % (GI %)
[8] = test system: caspase-3; experiment: Caspase-3 activation (ELISA) in breast HS 578T cancer cell line; assay type: cell-based, human
Procedure: Apoptosis is triggered by the activation of caspases, particularly caspase-3, which is an […] caspase responsible for apoptosis. Therefore, the induction of apoptosis by compound 6d was examined by the evaluation of caspase-3 activation in breast HS 578T cancer cell line. The effect of erlotinib as well as untreated cell line was used as positive and negative control, respectively. […] . […]
incubated for 15 minutes in the dark at room temperature. FacsCalibur was used to assess cell fluorescence after incubation (BD Biosciences, USA). The results were represented using dot-plot graphs.
1.1.5. Caspase-3 enzyme assay
The level of the apoptotic marker caspase-3 was measured using Invitrogen ELISA Kit Catalog # KHO1091. The procedure of the used kit was performed according to the manufacturer’s instructions. Let all components to reach room temperature before use. Gently combine all liquid reagents prior to use. Add 100 μL of the standard diluent buffer to the zero standard wells. Add 100 μL of standards and controls or diluted samples to the appropriate microtiter wells. Incubate for 2 h at room temperature. Pipette 100 μL of Caspase-3 (Active) detection antibody solution into each well. […] Read the absorbance of each well at 450 nm. Read the plate within 2 h after adding the stop solution. […] Read the concentrations for unknown samples and controls from the standard curve.

| SMILES | melting point | inhibition at 10 µM [1] | inhibition at 10 µM [2] | inhibition at 10 µM [3] | inhibition at 10 µM [4] | inhibition at 10 µM [5] | inhibition at 10 µM [6] | inhibition at 10 µM [7] | increase of caspase-3 level compared to negative control [8] |
| --- | --- | --- | --- | --- | --- | --- | --- | --- | --- |
| O=c1c2ccccc2nc(NN=Cc2ccc(Oc3ccc(Cl)cc3)cc2)n1-c1ccccc1 [3a, 2–(2-(4–(4-chlorophenoxy)benzylidene)hydrazinyl)-3-phenylquinazolin-4(3H)-one] | 158 to 164 °C | < 15% | < 15% | < 15% | < 15% | < 15% | < 0% | < 15% |  |
| O=c1c2ccccc2nc(NN=Cc2ccc(Oc3ccc(Br)cc3)cc2)n1-c1ccccc1 [3b, 2–(2-(4–(4-bromophenoxy)benzylidene)hydrazinyl)-3-phenylquinazolin-4(3H)-one] | 198 to 200 °C |  | < 15% |  | < 15% |  | < 0% | < 15% |  |
| COc1ccc(Oc2ccc(C=NNc3nc4ccccc4c(=O)n3-c3ccccc3)cc2)cc1 [3c, 2–(2-(4–(4-methoxyphenoxy)benzylidene)hydrazinyl)-3-phenylquinazolin-4(3H)-one] | 185 to 188 °C | 15.2% | 16% | < 15% | 21.6% | < 15% | 1.6% | 24.8% |  |
| O=c1c2ccccc2nc(NN=Cc2ccc(Oc3ccc(Cl)cc3)cc2)n1-c1ccc(Cl)cc1 [3d, 2–(2-(4–(4-chlorophenoxy)benzylidene)hydrazinyl)-3–(4-chlorophenyl)quinazolin-4(3H)-one] | 212 to 214 °C | < 15% | < 15% |  | < 15% | < 15% | < 0% | < 15% |  |
| O=c1c2ccccc2nc(NN=Cc2ccc(N3CCCCC3)cc2)n1-c1ccccc1 [3e, 3-phenyl-2–(2-(4-(piperidin-1-yl)benzylidene)hydrazinyl)quinazolin-4(3H)-one] | 160 to 166 °C | < 15% | < 15% | < 15% | < 15% | < 15% | < 0% | < 15% |  |
| O=c1c2ccccc2nc(NN=Cc2ccc(N3CCOCC3)cc2)n1-c1ccccc1 [3f, 2–(2-(4-morpholinobenzylidene)hydrazinyl)-3-phenylquinazolin-4(3H)-one] | 242 to 244 °C | < 15% | < 15% | < 15% | < 15% | < 15% | < 0% | < 15% |  |
| CN1CCN(c2ccc(C=NNc3nc4ccccc4c(=O)n3-c3ccccc3)cc2)CC1 [3g, 2–(2-(4–(4-methylpiperazin-1-yl)benzylidene)hydrazinyl)-3-phenylquinazolin-4(3H)-one] | 208 to 210 °C | < 15% | < 15% | 25.1% | 21% | 16% | < 0% | < 15% |  |
| C#Cc1cccc(Nc2ncnc3cc(OCCOC)c(OCCOC)cc23)c1 [Erlotinib, erlotinib, reference compound] |  |  |  |  |  |  |  |  | 8.78 fold |
